Test results published in publication PMC6165285, “α-Glucosidase Inhibitors: Diphenyl Ethers and Phenolic Bisabolane Sesquiterpenoids from the Mangrove Endophytic Fungus Aspergillus flavus QQSG-3” (Marine Drugs, 2018).
Entries after “also recorded” stand apart in the source; their conditions may differ.

Molecular target: α-glucosidase (Saccharomyces cerevisiae, UniProt P53341)
Experiment: α-Glucosidase inhibitory activity (p-nitrophenyl-α-glucopyranoside substrate, absorbance at 405 nm)
Type: biochemical
Conditions: compared to the positive control acarbose
Method: α-Glucosidase was assayed according to standard procedures. […] Ten microliters of testing materials (in triplicate) were incubated for 10 min with 20 μL of enzyme stock solution and 60 μL of PBS. After incubation, 10 μL of substrate was added and incubated for 20 min at 37 °C. Absorbance at 405 nm was then determined.
The inhibitory activity of the isolates was determined as a percentage in comparison to a blank (DMSO) according to the following equation: %αGHY=(1−A405t/A405c)×100% where %αGHY is the percentage of inhibition, A405t is the corrected absorbance of the compound under testing (A405end − A405initial), and A405c is the absorbance of the blank (A405endblank − A405initialblank). The IC50 values of compounds were calculated by the nonlinear regression analysis.

α-glucosidase, sequence (P53341 whole entry): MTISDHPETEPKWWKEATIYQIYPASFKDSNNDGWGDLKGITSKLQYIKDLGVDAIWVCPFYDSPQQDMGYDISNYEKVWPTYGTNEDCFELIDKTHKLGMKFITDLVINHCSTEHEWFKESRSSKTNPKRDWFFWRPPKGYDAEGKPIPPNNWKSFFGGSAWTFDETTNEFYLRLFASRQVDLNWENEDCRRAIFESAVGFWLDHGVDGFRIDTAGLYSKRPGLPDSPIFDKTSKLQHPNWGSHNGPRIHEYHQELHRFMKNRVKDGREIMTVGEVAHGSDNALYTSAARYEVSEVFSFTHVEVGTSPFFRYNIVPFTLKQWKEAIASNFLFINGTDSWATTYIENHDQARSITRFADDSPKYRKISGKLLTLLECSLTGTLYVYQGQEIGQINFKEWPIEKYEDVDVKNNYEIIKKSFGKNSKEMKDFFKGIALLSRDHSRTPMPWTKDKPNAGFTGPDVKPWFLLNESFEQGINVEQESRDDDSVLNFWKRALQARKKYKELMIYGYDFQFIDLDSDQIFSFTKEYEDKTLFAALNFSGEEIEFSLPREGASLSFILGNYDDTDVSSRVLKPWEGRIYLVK

| SMILES | α-glucosidase inhibitory activity, result in words |
| --- | --- |
| Cc1cc(O)cc(Oc2cc(C)c(O)c(O)c2)c1 [Compound 1] | better than that of acarbose |
| CC(C)CCCC(C)(O)c1ccc(COCc2ccc(C(C)(O)CCCC(C)C)c(O)c2)cc1O (stereo not drawn) [Compound 5] | strong inhibitory activity; also recorded: strong inhibitory effects |
| Cc1cc(O)cc(Oc2cc(C)c(C(=O)OCC(O)C(O)CO)c(O)c2)c1 (stereo not drawn) [Compound 2] | better than that of acarbose |
| C/C(=C\CCC(C)C)c1ccc(Cc2c(C)cc(Oc3cc(C)cc(O)c3)cc2O)cc1O [Compound 11, expansol D] | strong inhibitory activity; also recorded: strong inhibitory effects |
| C/C(=C\CCC(C)C)c1ccc(Cc2cc(C)cc(O)c2O)cc1O [Compound 3] | strong inhibitory activity; also recorded: strong inhibitory effects |
| Cc1cc(O)cc(Oc2cc(C)cc(OCc3ccc([C@@](C)(O)CCCC(C)C)c(O)c3)c2)c1 [Compound 10, peniciaculin A] | strong inhibitory activity; also recorded: strong inhibitory effects |
